These results are taken from US20110028517A1 (LABORATORIOS DEL DR. ESTEVE, S.A., priority 2008, published 2011).

Assay [1] concerns the target T1, Human CB1 receptor (Homo sapiens, UniProt P21554). Kind of assay: In-vitro determination of functional activity to human CB1-receptors ([35S]GTPγS binding in presence of Win 55,212-2, CHO-CB1 membranes). It counts as biochemical. The arrangement: expressed in transfected cells; host or cells: CHO cells, stably transfected, membranes. As to conditions: for functional behaviour at CB1 receptor (inverse agonist or neutral antagonist): [35S]GTPγS binding relative to basal levels, FIG. 1. How it is done:
The binding of [^35S]GTPγS was carried out using a modification of previously published methods Meschler, J. P., Kraichely, D. M., Wilken, G. M AND Howlet, A. C. […] Eur. J. Pharm. Sci. 2004, 23 (3): 233-43.
Human CB1 membranes were prepared from stably transfected CHO cells. Incubation mixtures consisted of CHO-CB1 membrane preparation at a final concentration of 15 μg of protein, compound (dose-response curve between 3 nM and 3 μM, final well concentration), Win 55,212-2 (0.3 μM final well concentration) and binding buffer (50 mM HEPES, pH 7.4, 100 mM KCl, 5 mM MgCl2, 1 mM EDTA, 0.1% wt/vol bovine serum albumin, 5 μM GDP, saponin 10 μg/ml). Subsequently [^35S]GTPγS (0.25 nM) was added, samples were incubated for 60 minutes at 30° C. and finally filtered. Radioactivity on filters was measured with Wallac Microbeta Trilux. Data analysis was performed by using Graph Pad Prism version 3.03 for windows. The bottom plateau of the analyzed sigmoid curves is considered the Emin (Minimal efficacy) value and values of Emin<0 represents inverse agonism of the compounds.

Assay [2] concerns the target T1, Human CB1 receptor. Kind of assay: In-vitro determination of affinity to human CB1-receptors ([3H] (+)-CP55,940 radioligand binding, HEK-293 membranes). The arrangement: expressed in transfected cells. As to conditions: [3H] (+)-CP55,940 0.45 nM. How it is done: Binding affinity for CB1 receptor was evaluated according to a modification of the Govaerts S J, Hermans E and Lambert D M. “Comparison of cannabinoid ligand affinities and efficacies in murine tissues and in transfected cells expressing human recombinant cannabinoid receptors”. Eur. J. Pharm. Sci. 2004, 23 (3): 233-43 described method. Human CB1 receptor was transfected into HEK-293 cells and a stable clone obtained and membranes prepared from this clone was used as the membrane source for radioligand binding studies. [3H] (+)-CP55,940 was used as radioligand at a final concentration of 0.45 nM. The incubation buffer was Tris-HCl 50 mM, MgCl2 5 mM, EDTA 1 mM, BSA 0.5%, pH 7.4 and the non-specific binding was determined with 10 μM of HU210. Samples were incubated at 37° C. for 60 min before filtration. Radioactivity on filters was measured with Wallac Winspectral 1414 counter by liquid scintillation in Ecoscint H (National Diagnostics, U.K.).

Assay [3] is described as follows: Selectivity for 170 targets.
Assay [4] concerns the target T2, CB1 receptors present in the CNS (Rattus norvegicus, UniProt P20272).
T2 construct: from tissue; host or cells: live Wistar rat, central nervous system
In words: Reversion of the analgesic effect of CP-55,940 in tail flick test in rat. It counts as in vivo. As to conditions: 10 mg/kg oral. How it is done:
(§1) Male CD1 mice (Charles River Laboratories), weighting 30 to 40 g (7-8 weeks old) and Male Wistar rats (Charles River Laboratories), weighting 260-300 g (7-8 weeks old) at the time of experiment, were housed in a controlled environment. Temperature was maintained at 22±2° C. on a 12-h light/dark cycle (On at 07:00 h and Off at 19:00 h) and food and water were available ad libitum. The experiments were performed during the light phase. The number of mice ranged from 4 to 15 per group in each individual experiment. Animals were always handled in accordance with ethical principles for the evaluation of pain in conscious animals (Zimmerman, 1983) and with the European Communities Council Directive of 24 November 1986 (86/609/ECC), and received approval by the local Ethical Committee.
CP-55,940 (Ref. 0949, Tocris; Wiley et al., 1995) was administrated by subcutaneous route at 0.3 mg/kg in a volume of 5 ml/kg in mice and by intraperitoneal route at 0.5 mg/kg in a volume of 2 ml/kg in rat. NESS-0327 (Ruiu et al., 2003) was administrated by intraperitoneal route at 0.3 mg/kg and 1 mg/kg in a volume of 10 ml/kg in mice. […]
The tail flick test was used to evaluate the antinociceptive effect of compounds. […] A noxious beam of light was focused on the mice tail about 4 cm from its tip, and the tail flick latency was recorded automatically to the nearest 0.1 s. […]
For orientation: In hot-plate and tail-flick tests a longer latency is read as antinociception.

The target in assay [5] is T3, CB1 receptors present in the CNS (Mus musculus, UniProt P47746).
T3 construct: from tissue; host or cells: live CD1 mouse, central nervous system
In words: Reversion of the analgesic effect of CP-55,940 in tail flick test in mice. It counts as in vivo. To be noted: for reversion of the analgesic effect of CP-55,940: CP-55,940 0.3 mg/kg subcutaneous, FIG. 5. How it is done: as §1
CP-55,940 (Ref. 0949, Tocris; Wiley et al., 1995) was administrated by subcutaneous route at 0.3 mg/kg in a volume of 5 ml/kg in mice and by intraperitoneal route at 0.5 mg/kg in a volume of 2 ml/kg in rat. NESS-0327 (Ruiu et al., 2003) was administrated by intraperitoneal route at 0.3 mg/kg and 1 mg/kg in a volume of 10 ml/kg in mice. […] All compounds were dissolved using HPMC (Hydroxypropyl methyl cellulose) which was prepared at a concentration of 0.5% in Milli-Q water.
The tail flick test was used to evaluate the antinociceptive effect of compounds. The test was performed as previously described (Moncada et al., 2003 and Robles et al., 1996). A noxious beam of light was focused on the mice tail about 4 cm from its tip, and the tail flick latency was recorded automatically to the nearest 0.1 s. The intensity of the radiant heat source was adjusted to produce latencies between 3-5 sec in vehicle treated mice and 2-4 sec in vehicle treated rats. In order to minimize cutaneous injuries a cut-off time of 10 s was used.
Mice were tested 60 min after subcutaneous administration of CP-55,940 (0.3 mg/kg) or vehicle (HPMC 0.5%).
Data are presented as tail flick latency responses in sec ±S.E.M and as percentage of analgesia ±S.E.M. The values in the control group were compared against those obtained in the treated groups. Statistical analysis to test intergroup comparisons was made using an initial one-way analysis of variant followed by the Newman-Keuls multiple comparison test. The level of significance was set at p<0.05.

In assay [6] the target is T4, cannabinoid CB1 receptors present in the central nervous system (Rattus norvegicus, UniProt P20272).
T4 construct: from tissue; host or cells: live Wistar rat, central nervous system
In words: Prevention of hypothermia produced by CP55,940 in rat. The assay is classed as in vivo. As to conditions: CP55,940 0.3 mg/kg ip, FIG. 4. How it is done: Male Wistar rats (220-270 g) were used. Rats were fed ad libitum with pellet standard rodent chow. Animals were maintained on a 12/12 hour light-dark cycle. They were randomized into groups for compound and vehicle dosing. Animals were first dosed, p.o., with vehicle (saline +1 drop of tween) or with the (4S,5S)-5-(4-chlorophenyl)-1-(2,4-dichlorophenyl)-N-(cis-2,6-dimethylpiperidin-1-yl)-4-methyl-4,5-dihydro-1H-pyrazole-3-carboxamide enantiomer (10 or 30 mg/kg) 60 minutes prior to the second administration, i.p., with vehicle or CP 55,940 (0.3 mg/kg). Body temperature was measured using a rectal probe connected to a thermometer (CIBERTEC). Measurements were performed at T=−60, 0, 60, 120 and 240 minutes following CP55,940 administration. CP,55,940 was administered just after the measurement of Body temperature at T=0.
Data were analyzed by a two-way (treatment, time) analysis of variance (ANOVA) with repeated measure on the time factor. A covariate was included to adjust for differences between treatment groups at baseline (Time 0). Comparisons between average treatment profiles were performed by defining appropriate tests for contrasts within the ANOVA analysis. A value of P<0.05 was considered significant. Data analysis was carried out with the SAS/STAT® release 9.1 statistical package (SAS Institute Inc., Cary, N.C.).

T3 sequence (P47746 whole entry): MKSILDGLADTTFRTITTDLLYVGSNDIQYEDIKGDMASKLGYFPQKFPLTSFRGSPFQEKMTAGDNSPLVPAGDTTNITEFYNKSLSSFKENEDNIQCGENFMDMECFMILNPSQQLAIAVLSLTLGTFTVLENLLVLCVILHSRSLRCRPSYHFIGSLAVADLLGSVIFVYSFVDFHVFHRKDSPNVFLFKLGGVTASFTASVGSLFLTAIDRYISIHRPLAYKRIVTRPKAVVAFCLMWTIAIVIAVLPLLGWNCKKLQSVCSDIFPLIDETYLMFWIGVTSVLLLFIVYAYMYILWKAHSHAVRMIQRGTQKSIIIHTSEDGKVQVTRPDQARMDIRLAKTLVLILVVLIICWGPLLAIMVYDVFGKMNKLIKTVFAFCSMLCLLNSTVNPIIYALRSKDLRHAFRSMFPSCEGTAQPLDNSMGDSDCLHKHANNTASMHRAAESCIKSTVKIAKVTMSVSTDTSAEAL
T1 sequence (P21554 whole entry): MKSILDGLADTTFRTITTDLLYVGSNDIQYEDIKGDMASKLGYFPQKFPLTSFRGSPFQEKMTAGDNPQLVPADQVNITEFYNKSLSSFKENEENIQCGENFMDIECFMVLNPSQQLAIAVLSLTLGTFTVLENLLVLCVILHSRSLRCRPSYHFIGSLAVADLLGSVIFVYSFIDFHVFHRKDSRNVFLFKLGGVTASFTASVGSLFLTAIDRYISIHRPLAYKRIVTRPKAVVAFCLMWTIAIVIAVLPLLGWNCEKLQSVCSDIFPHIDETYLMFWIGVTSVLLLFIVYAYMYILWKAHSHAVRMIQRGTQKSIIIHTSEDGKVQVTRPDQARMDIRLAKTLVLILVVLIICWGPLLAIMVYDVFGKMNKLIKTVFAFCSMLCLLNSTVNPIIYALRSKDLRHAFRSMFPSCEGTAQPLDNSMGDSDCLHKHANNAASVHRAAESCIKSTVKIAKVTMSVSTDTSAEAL
T2 sequence (P20272 whole entry): as the sequence (P47746 whole entry) above, with D95E counted along it
T4 sequence (P20272 whole entry): as the sequence (P47746 whole entry) above, with D95E counted along it

For the compound `CC1CCCC(C)N1NC(=O)C1=NN(c2ccc(Cl)cc2Cl)[C@H](c2ccc(Cl)cc2)[C@@H]1C` (mixture of isomers) [racemate cis-compound, cis-5-(4-chlorophenyl)-1-(2,4-dichlorophenyl)-N-(2,6-dimethylpiperidin-1-yl)-4-methyl-4,5-dihydro-1H-pyrazole-3-carboxamide, reference compound], the “functional behaviour at CB1 receptor (inverse agonist or neutral antagonist)” value on Human CB1 receptor [1] is on record as “behave as inverse agonists”; at Human CB1 receptor [1] (listed as racemate compound), “CB1 inverse agonism”.

What is called Ki is a measure of affinity in units of concentration, obtained from inhibition or displacement. Higher therefore signals weaker binding. Regarding `C[C@@H]1C(C(=O)NN2[C@H](C)CCC[C@@H]2C)=NN(c2ccc(Cl)cc2Cl)[C@@H]1c1ccc(Cl)cc1` [(4S,5S)-5-(4-chlorophenyl)-1-(2,4-dichlorophenyl)-N-(cis-2,6-dimethylpiperidin-1-yl)-4-methyl-4,5-dihydro-1H-pyrazole-3-carboxamide], the “functional behaviour at CB1 receptor (inverse agonist or neutral antagonist)” value at Human CB1 receptor [1] is given as “neutral antagonist”; at Human CB1 receptor [1] (listed as (4S,5S) compound), “behaves as a neutral antagonist”. Besides, the “Emin (Minimal efficacy)” value on Human CB1 receptor [1] ([35S]GTPγS binding, Win 55,212-2 0.3 μM, Emin<0 represents inverse agonism) is given as −1±8. Further, the IC50 on Human CB1 receptor [1] ([35S]GTPγS binding, Win 55,212-2 0.3 μM, read-out: pIC50 (potency) (converted)) is 30.2 nM. The Ki at Human CB1 receptor [2] was 27 ± 10 nM. Besides, the “selective for 170 targets” value in assay [3] is 99%. In addition, the “effect by itself in tail flick test” value was “Neither Rimonabant (10 mg/kg) nor the ((4S,5S)-5-(4-chlorophenyl)-1-(2,4-dichlorophenyl)-N-(cis-2,6-dimethylpiperidin-1-yl)-4-methyl-4,5-dihydro-1H-pyrazole-3-carboxamide enantiomer (10 mg/kg) showed an effect by themselves” in assay [4] (without CP-55,940); “Neither Rimonabant (10 mg/kg) nor (4S,5S)-enantiomer (10 mg/kg) showed an effect by themselves” in assay [4] (without CP-55,940, listed as (4S,5S)-enantiomer); “Neither Rimonabant (5 mg/kg) nor the (4S,5S)-5-(4-chlorophenyl)-1-(2,4-dichlorophenyl)-N-(cis-2,6-dimethylpiperidin-1-yl)-4-methyl-4,5-dihydro-1H-pyrazole-3-carboxamide enantiomer (5 mg/kg) showed an effect by themselves” in assay [5] (5 mg/kg intraperitoneal, without CP-55,940); “Neither Rimonabant (5 mg/kg) nor the(4S,5S)-enantiomer (5 mg/kg) showed an effect by themselves” in assay [5] (5 mg/kg intraperitoneal, without CP-55,940, listed as (4S,5S)-enantiomer). Besides, the “prevention of the hypothermia produced by CP55,940” value in assay [6] (10 mg/Kg p.o.) and in assay [6] (30 mg/Kg p.o.) was “does not significantly prevent” in each case.

For the compound `O=C(NN1CCCCC1)c1nn(-c2ccc(Cl)cc2Cl)c2c1CCCc1cc(Cl)ccc1-2` [NESS-0327], the “reversion of the analgesic effect of CP-55,940” value in assay [5] (0.3 mg/kg intraperitoneal) is on record as “not at 0.3 mg/kg”; in assay [5] (1 mg/kg intraperitoneal), “significantly inhibited”. Besides, the “effect by itself in tail flick test” value in assay [5] (0.3 mg/kg intraperitoneal, without CP-55,940) is “Neither NESS-0327 (0.3 mg/kg) nor (1 mg/kg) showed an effect by themselves”; in assay [5] (1 mg/kg intraperitoneal, without CP-55,940), “Neither NESS-0327 (0.3 mg/kg) nor (1 mg/kg) showed an effect by themselves”.
